Reference: patent US20160158200A1, “Combinations of Hepatitis C Virus Inhibitors” (priority 2013, published 2016)

System: HCV genotype-1a variant with glutamine 30 changed to glutamate in the NS5A protein
Assay type: cell-based
Details: test compound titrated with BMS-790052 fixed at 200 nM; genotype 1a Q30E replicon
Description: The NS5A synergistic inhibitory effect of test compounds can be determined using various amounts of an NS5A-targeting compound with titration of a second compound of interest. […] In one embodiment, the HCV genotype strain can be genotype 1a containing a change at amino acid 30 of the NS5A protein consisting of glutamine to glutamate. The test compound can be chosen from compounds listed above or from others present in the literature.

| Structure (SMILES) | Fold-Synergistic 1a (Q30E) [fold] |
| --- | --- |
| COC1(C(=O)N[C@H](c2nc(-c3ccc(-c4ccc(-c5c[nH]c([C@@H](NC(=O)C6(OC)CC6)C(C)(C)C)n5)cc4)cc3)c[nH]2)C(C)(C)C)CC1 [Compound P-27] | >100 |
| CN(C)C(=N[C@H](c1ncc(-c2ccc(-c3ccc(-c4cnc([C@@H](NC(=O)C5(C6(O)CCNCC6)CCC5)C(C)(C)C)[nH]4)cc3)cc2)[nH]1)C(C)(C)C)N(C)C [Compound B85] | >10 |
| CC(C)[C@H](NC(=O)C(C)(C)C(O)C1CC(F)(F)C1)c1nc(-c2ccc(-c3ccc(-c4c[nH]c([C@@H](NC(=O)C(C)(C)C(O)C5CC(F)(F)C5)C(C)C)n4)cc3)cc2)c[nH]1 (single isomer, unassigned) [Compound N-145C] | >100 |
| COCC1(C(=O)N[C@H](c2ncc(-c3ccc(-c4ccc(-c5cnc([C@@H](NC(=O)C6(COC)CCC6)C(C)C)[nH]5)cc4)cc3)[nH]2)C(C)C)CCC1 [Compound P-74] | >100 |
| C=C1C[C@@H](C(=O)N[C@H](c2nc(-c3ccc(-c4ccc(-c5c[nH]c([C@@H](NC(=O)[C@@H]6CC(=C)CN6C(=O)OC(C)(C)C)C(C)C)n5)cc4)cc3)c[nH]2)C(C)C)N(C(=O)OC(C)(C)C)C1 [Compound W-89] | >100 |
| COC(=O)NC(C)(C)C(=O)N[C@H](c1nc(-c2ccc(-c3ccc(-c4c[nH]c([C@@H](NC(=O)C(C)(C)NC(=O)OC)C(C)(C)C)n4)cc3)cc2)c[nH]1)C(C)(C)C [Compound Q-1] | >100 |
| CC(C)CC(=O)N[C@@H](c1nc(-c2ccc(-c3ccc(-c4c[nH]c([C@H](NC(=O)CC(C)C)C(C)(C)C)n4)cc3)cc2)c[nH]1)C(C)(C)C [Compound N-67] | >10 |
| CC(C)(NC(=O)CC(F)(F)F)C(=O)N[C@H](c1nc(-c2ccc(-c3ccc(-c4c[nH]c([C@@H](NC(=O)C(C)(C)NC(=O)CC(F)(F)F)C(C)(C)C)n4)cc3)cc2)c[nH]1)C(C)(C)C [Compound L-144] | >100 |
| CC1(C)CC1C(=O)N[C@H](c1ncc(-c2ccc(-c3ccc(-c4cnc([C@@H](NC(=O)C5CC5(C)C)C(C)(C)C)[nH]4)cc3)cc2)[nH]1)C(C)(C)C (single isomer, unassigned) [Compound B81] | >100 |
| CC(C)[C@H](NC(=O)C1CCC(F)(F)CC1)c1ncc(-c2ccc3c(c2)Cc2cc(-c4cnc([C@@H](NC(=O)C5CCC(F)(F)CC5)C(C)C)[nH]4)ccc2-3)[nH]1.O=C(O)C(F)(F)F [Compound N-70] | >100 |
| CC(C)[C@H](NC(=O)c1ccc(F)c(F)c1)c1ncc(-c2ccc(-c3ccc(-c4cnc([C@@H](NC(=O)c5ccc(F)c(F)c5)C(C)C)[nH]4)cc3)cc2)[nH]1 [Compound S-16] | >100 |
| CC(C)CC(=O)N(C)C(c1ncc(-c2ccc(-c3ccc(-c4cnc(C(C(C)C)N(C)C(=O)CC(C)C)[nH]4)cc3)cc2)[nH]1)C(C)C (stereo not shown) [Compound P-54] | >100 |
| CC(C)(C)OC(=O)NC(C)(C)C(=O)N[C@H](c1nc(-c2ccc(-c3ccc(-c4c[nH]c([C@@H](NC(=O)C(C)(C)NC(=O)OC(C)(C)C)C(C)(C)C)n4)cc3)cc2)c[nH]1)C(C)(C)C [Compound L-3] | >100 |
| CC1(C(=O)N[C@H](c2nc(-c3ccc(-c4ccc(-c5c[nH]c([C@@H](NC(=O)C6(C)CCCCC6)C(C)(C)C)n5)cc4)cc3)c[nH]2)C(C)(C)C)CCCCC1 [Compound P-47] | >100 |
| CC(C)[C@H](NC(=O)CC1CCCCCC1)c1ncc(-c2ccc(-c3ccc(-c4cnc([C@@H](NC(=O)CC5CCCCCC5)C(C)C)[nH]4)cc3)cc2)[nH]1 [Compound S-56] | >100 |
| CC1CN(C(=O)C(=O)N[C@H](c2nc(-c3ccc(-c4ccc(-c5c[nH]c([C@@H](NC(=O)C(=O)N6CC(C)OC(C)C6)C(C)(C)C)n5)cc4)cc3)c[nH]2)C(C)(C)C)CC(C)O1 (single isomer, unassigned) [Compound W-40B] | >100 |
